Patent US20210139540A1, “MULTIVALENT LIGAND-LIPID CONSTRUCTS” (priority 2014, published 2021)

Test system: kodecytes
Test: Complement induced cell lysis of kodecytes in pooled AB serum
Assay type: cell-based
Conditions: for Abs 1: duplicate 1; for Abs 2: duplicate 2; for (A1 and A2): from duplicates; for Sensitivity of kodecytes to lysis compared with kodecytes prepared using construct 49: complement mediated autolysis; for Calculated %: percentage of cells lysed using standard curve; for Measured %: percentage of cells lysed, construct 49 set as 100; for Degree of lysis: qualitative
Experimental: Preparation of kodecytes Stock solutions of constructs (35, 47, 48 and 49) were prepared at a concentration of 1 mg/mL in a red blood cell (RBC) preservative solution (CELPRESOL™, CSL Limited). Prior to dilution each stock solution was vortexed for 45 seconds at room temperature (r.t.). A volume of 100 μL of diluted stock solution was added to a volume of 100 μL centrifugally packed RBCs (packed cell volume; PCV). The total volume of 200 μL suspended RBCs was incubated at 37° C. for 2 hours before washing with CELPRESOL™ and re-suspending the modified RBCs (“kodecytes”) at a concentration of 5% PCV in CELPRESOL™.
Prior to use kodecytes were washed and re-suspended 5% PCV in phosphate buffered saline (PBS). Uniformity of concentration of RBCs was confirmed by adding a volume of 40 μL of kodecyte suspension to a volume of 1 mL of Drabkins solution and the absorbance measured at 540 nm against Drabkins solution (blank). Variations in measured absorbances was reduced to less than 10% by adjustment of suspending volume.
The ability of constructs to induce complement mediated autolysis was evaluated by a method analogous to that described in the publication of Henry and Komarraju (2012). For the present studies kodecytes prepared using construct 49 were used as a 100% lysis control. A volume of 200 μL pooled AB serum and a volume of 100 μL kodecytes prepared using construct 49 at a concentration of 750 μg/mL was used as the 100% lysis control. A volume of 200 μL pooled AB serum and a volume of 100 μL O group RBCs (prepared as kodecytes without the addition of construct) was used as the 0% lysis control. To measure the ability of constructs to induce complement mediated autolysis of kodecytes volumes of 200 μL of pooled AB serum were dispensed into duplicate sets of test tubes. A volumes of 100 μL kodecytes was added to the tubes before incubation at 37° C. for 1 hour. Following incubation a volume of 1 μL ethylenediaminetetraacetic acid (EDTA) as its dipotassium salt
was added to each to each test tube to provide a final concentration of 0.1 mM EDTA. The test tubes were then centrifuged and the characteristics of the sedimented RBCs and supernatant observed (Table 2 and FIG. 2). In addition a volume of 160 μL of the cell free supernatant was removed and added to a volume of 1 mL of Drabkins solution. The absorbance of the solution was then measured at 540 nm against a volume of 160 μL pooled AB serum added to a volume of 1 mL of Drabkins solution (blank). The absorbance of the supernatant was calculated as a percentage of the initial absorbance of the suspension of kodecytes. The percentage of cells lysed was calculated against a standard curve.

[1] = absorbance 540 nm of supernatant, concentration not given
[2] = absorbance 540 nm, concentration not given
[3] = pooled AB serum, 37° C., 1 hour, construct concentration not given
[4] = absorbance 540 nm, 100% lysis control (construct 49 at 750 μg/mL)

Row | Compound | Abs 1 [1] | Abs 2 [1] | (A1 and A2) [2] | Sensitivity of kodecytes to lysis compared with kodecytes prepared using construct 49 (pooled AB serum) | Calculated % (concentration not given) | Measured % (concentration not given) | Degree of lysis [3] | Abs 1 [4] | Abs 2 [4] | (A1 and A2) [4] | Calculated % (100% lysis control (construct 49 at 750 μg/mL)) | Degree of lysis (100% lysis control: kodecytes prepared using construct 49 at 750 μg/mL)
1 | CCCCCCCC/C=C\CCCCCCCC(=O)OCC(COP(=O)(O)OCCNC(=O)CCCCC(=O)NCCCO[C@@H]1OC(CO)[C@@H](O[C@@H]2OC(CO)[C@H](O)C(O[C@H]3OC(CO)[C@H](O)C(O)C3NC(C)=O)C2O)C(O)C1NC(C)=O)OC(=O)CCCCCCC/C=C\CCCCCCCC (stereo partly shown) [construct 48, GalNAcα1-3Galβ1-4GlcNAc-Ad-DOPE] | .349 | .345 | .347 | approximately twice as sensitive | 95% | 190% | Complete | – | – | – | – | –
2 | Galili-CMG2-Ad-DOPE [construct 47] | .224 | .243 | .234 | somewhat more sensitive | 65% | 128% | Partial | – | – | – | – | –
3 | Galα1-3Galβ1-4GlcNAc-Ad-DOPE [construct 49] | .178 | .187 | .183 | – | 51% | Set as 100% | Partial | .303 | .310 | .307 | 85% | Complete
